In ChEMBL document CHEMBL1127133, “Substituted 6-alkyloxapenems: potent -lactamase inhibitors: synthesis and biological characterization” (Bioorg Med Chem Lett, 1993):

Assay: T1/2 (phosphate buffer pH 7.0 @ 28 degree C)
Type: ADME

SMILES | half-life
CC(C)(C)C1=C(C(=O)[O-])N2C(=O)[C@H]([C@@H](O)CCc3ccc(O)cc3)[C@@H]2O1.[Na+] | 11.8 h
CC(C)(C)C1=C(C(=O)[O-])N2C(=O)[C@H](CNC(=O)CNC(=O)Cc3ccccc3)[C@H]2O1.[Na+] | 6.6 h
CC(C)(C)C1=C(C(=O)[O-])N2C(=O)[C@H]([C@H](O)CCc3ccncc3)[C@H]2O1.[Na+] | 13.7 h
CC(C)(C)C1=C(C(=O)[O-])N2C(=O)[C@H]([C@H](O)CCc3ccccc3)[C@H]2O1.[Na+] | 21 h
CC(C)(C)C1=C(C(=O)[O-])N2C(=O)[C@H]([C@@H](O)c3ccccc3)[C@@H]2O1.[Na+] | 2.2 h
CC(C)(C)C1=C(C(=O)[O-])N2C(=O)[C@H]([C@@H](O)c3ccc(O)cc3)[C@H]2O1.[Na+] | 10.3 h
COC(=O)[C@H](O)[C@H]1C(=O)N2C(C(=O)[O-])=C(C(C)(C)C)O[C@H]12.[Na+] | 6.7 h
C[C@@H](O)[C@H]1C(=O)N2C(C(=O)[O-])=C(C(C)(C)C)O[C@@H]12.[Na+] | 6.4 h
CC(C)(C)C1=C(C(=O)[O-])N2C(=O)[C@H]([C@@H](O)CCc3ccncc3)[C@H]2O1.[Na+] | 15.8 h
CC(C)(C)C1=C(C(=O)[O-])N2C(=O)[C@H]([C@H](O)c3ccccc3)[C@@H]2O1.[Na+] | 0.5 h
C[C@@H](F)[C@H]1C(=O)N2C(C(=O)[O-])=C(C(C)(C)C)O[C@H]12.[Na+] | 3.5 h
C[C@H](O)[C@H]1C(=O)N2C(C(=O)[O-])=C(C(C)(C)C)O[C@H]12.[Na+] | 7.1 h
CC(C)(C)C1=C(C(=O)[O-])N2C(=O)[C@H](CO)[C@H]2O1.[Na+] | 5 h
CC(C)(C)OC(=O)[C@H](O)[C@H]1C(=O)N2C(C(=O)[O-])=C(C(C)(C)C)O[C@H]12.[Na+] | 10.7 h
CC(C)(C)C1=C(C(=O)[O-])N2C(=O)[C@H]([C@H](O)CCc3ccncc3)[C@@H]2O1.[Na+] | 7.1 h
CC(C)(C)C1=C(C(=O)[O-])N2C(=O)[C@H]([C@H](O)CCc3ccc(O)cc3)[C@H]2O1.[Na+] | 24.6 h
CC(=O)NC[C@H]1C(=O)N2C(C(=O)[O-])=C(C(C)(C)C)O[C@H]12.[Na+] | < 3 h
Cn1cc([C@@H](O)[C@H]2C(=O)N3C(C(=O)[O-])=C(C(C)(C)C)O[C@H]23)nn1.[Na+] | 6.8 h
CC(C)(C)C1=C(C(=O)[O-])N2C(=O)[C@H](CNS(=O)(=O)Cc3ccccc3)[C@H]2O1.[Na+] | 8.9 h

SMILES | half-life
CC(C)(C)C1=C(C(=O)[O-])N2C(=O)[C@H](CNC(=O)Cc3ccccc3)[C@H]2O1.[Na+] | 5.5 h
C[C@@H](O)[C@H]1C(=O)N2C(C(=O)[O-])=C(C(C)(C)C)O[C@H]12.[Na+] | 8.1 h
CC(C)(C)C1=C(C(=O)[O-])N2C(=O)[C@H]([C@@H](O)CCc3ccc(O)cc3)[C@H]2O1.[Na+] | 21.2 h
CC(C)(C)C1=C(C(=O)[O-])N2C(=O)[C@H](CNC(=O)COC(=O)Cc3ccccc3)[C@H]2O1.[Na+] | 9.3 h
CC(C)(C)C1=C(C(=O)[O-])N2C(=O)[C@H]([C@H](O)c3ccncc3)[C@H]2O1.[Na+] | 6.4 h
CC(C)(C)C1=C(C(=O)[O-])N2C(=O)[C@H](CNC(=O)COc3ccccc3)[C@H]2O1.[Na+] | 5.7 h
CC(C)(C)C1=C(C(=O)[O-])N2C(=O)[C@H](CNC(=O)CCNC(=O)Cc3ccccc3)[C@H]2O1.[Na+] | 5.5 h
CC(C)(C)C1=C(C(=O)[O-])N2C(=O)[C@H]([C@@H](O)CCc3ccccc3)[C@H]2O1.[Na+] | 39 h
CC(C)(C)C1=C(C(=O)[O-])N2C(=O)[C@H](CNC(=O)[C@H](N)c3ccccc3)[C@H]2O1.[Na+] | 2.2 h
CC(C)(C)C1=C(C(=O)[O-])N2C(=O)[C@H]([C@H](O)c3ccccc3)[C@H]2O1.[Na+] | 7 h
CC(C)(C)C1=C(C(=O)[O-])N2C(=O)[C@H](CN)[C@H]2O1.[Na+] | 1.2 h
CC(C)(C)C1=C(C(=O)[O-])N2C(=O)[C@H]([C@@H](O)c3ccccc3)[C@H]2O1.[Na+] | 8.9 h
O=C([O-])[C@H]1/C(=C/CO)O[C@@H]2CC(=O)N21.[K+] [CLAVULANATE POTASSIUM] | 60 h
C[C@H](F)[C@H]1C(=O)N2C(C(=O)[O-])=C(C(C)(C)C)O[C@H]12.[Na+] | 7.2 h
COC(=O)[C@@H](O)[C@H]1C(=O)N2C(C(=O)[O-])=C(C(C)(C)C)O[C@H]12.[Na+] | 6.2 h
Cn1cc([C@H](O)[C@H]2C(=O)N3C(C(=O)[O-])=C(C(C)(C)C)O[C@H]23)nn1.[Na+] | 7 h
CC(C)(C)C1=C(C(=O)[O-])N2C(=O)[C@H](CNS(C)(=O)=O)[C@H]2O1.[Na+] | 2.2 h
CC(C)(C)C1=C(C(=O)[O-])N2C(=O)[C@H](CO)[C@@H]2O1.[Na+] | 2.4 h
CC(C)(C)C1=C(C(=O)[O-])N2C(=O)[C@H]([C@@H](O)c3ccncc3)[C@H]2O1.[Na+] | 6 h
